Measured values: patent US11306117B2, “Whitening composition containing novel quercetin-based compound” (AMOREPACIFIC CORPORATION, priority 2017, dated 2022)

Legend:
mushroom tyrosinase = test: Inhibition of tyrosinase activity; format: biochemical; settings: L-tyrosine, 37° C., 20 minutes, absorbance 490 nm
Description: The effect of New Materials 31 and 32 on inhibiting tyrosinase activity was evaluated.
Specifically, tyrosinase and tyrosine derived from mushroom were obtained from Sigma Chemical. Together with 150 μl of 0.1 M phosphate buffer (pH 6.5), 8 μl of mushroom tyrosinase (2,100 unit/ml) and 0.05 M concentration of L-tyrosine, arbutin and New Materials 31 and 32 were treated at the concentrations of following Table 3, respectively. The tyrosinase activity was evaluated by performing the enzyme reaction at 37° C. for 20 minutes and then measuring absorbance at 490 nm using a microplate reader (Bio-Rad 3550, Richmond, Calif., U.S.A.).

healthy adult examinees = test: HRIPT (Human repeated insult patch tests), skin accumulated stimulus; format: in vivo; set-up: key to skin reactivity (ICDRG criteria): −: negative (no response); ±: doubtful or slight erythema, etc.; +: weak reaction (which is accompanied with no phlyctenule), erythema, papule; ++: severe reaction (which is accompanied with phylctenule), erythema, papule, phlyctenule; +++: strong reaction, bullae reaction; settings: for average reactivity: 9 patches, 15 examinees; for Number of examinees who exhibited ±, +, or ++ reactivity 1st: 1st patch; for Number of examinees who exhibited ±, +, or ++ reactivity 2nd: 2nd patch; for Number of examinees who exhibited ±, +, or ++ reactivity 3rd: 3rd patch; for Number of examinees who exhibited ±, +, or ++ reactivity 4th: 4th patch; for Number of examinees who exhibited ±, +, or ++ reactivity 5th: 5th patch; for Number of examinees who exhibited ±, +, or ++ reactivity 6th: 6th patch; for Number of examinees who exhibited ±, +, or ++ reactivity 7th: 7th patch; for Number of examinees who exhibited ±, +, or ++ reactivity 8th: 8th patch; for Number of examinees who exhibited ±, +, or ++ reactivity 9th: 9th patch
Description: HRIPT (Human repeated insult patch tests) was conducted in order to identify skin accumulated stimulus of quercetin3-O-[3-O″-(E)-p-coumaroyl][β-D-glucopyranosyl-(1→3)-O-α-L-rhamnopyranosyl-(1→6)-O-β-D-glucopyranoside] and quercetin3-O-[3-O″-(E)-p-coumaroyl][α-L-rhamnopyranosyl-(1→6)-O-β-D-glucopyranoside]and to calculate the concentration range that can be used in skin.
Specifically, 15 healthy adult examinees were randomly selected, and test compositions in which the compounds were respectively comprised in an amount of 0.5 wt. %, 1 wt. %, and 3 wt. % (the compositions for skin, comprising an emulsifying agent, a stabilizer, purified water, etc. in addition to the compounds) were dropped in the amount of 20 μl per chamber (IQ chamber, Epitest Ltd, Finland), and patched on the right site of the upper back of the examinees, and then, after 24 hours, the patch was replaced with a new patch. A total of 9 patches were conducted, three times a week for total 3 weeks, in such manner, the skin reactions before and after patch were examined every time, and the skin reactions until 48 hours after removing the final patch were observed, and the average reactivity was observed.
The skin reaction was determined according to the criteria of International Contact Dermatitis Research Group (ICDRG). In the above table, “New Material 31” refers to quercetin3-O-[3-O″-(E)-p-coumaroyl][β-D-glucopyranosyl-(1→3)-O-α-L-rhamnopyranosyl-(1→6)-O-β-D-glucopyranoside], and “New Material 32” refers to quercetin3-O-[3-O″-(E)-p-coumaroyl][α-L-rhamnopyranosyl-(1→6)-O-β-D-glucopyranoside].

C[C@@H]1O[C@@H](OC[C@H]2O[C@@H](Oc3c(-c4ccc(O)c(O)c4)oc4cc(O)cc(O)c4c3=O)[C@H](O)[C@@H](OC(=O)/C=C/c3ccc(O)cc3)[C@@H]2O)[C@H](O)[C@H](O[C@@H]2O[C@H](CO)[C@@H](O)[C@H](O)[C@H]2O)[C@H]1O [New Material 31, quercetin3-O-[3-O″-(E)-p-coumaroyl][β-D-glucopyranosyl-(1→3)-O-α-L-rhamnopyranosyl-(1→6)-O-β-D-glucopyranoside]]
−: skin reactivity (ICDRG criteria) (healthy adult examinees; 0.5 wt.%, 1 wt.% and 3 wt.%, 9 patches in 3 weeks)
16 ppm: IC50 inhibiting tyrosinase activity (mushroom tyrosinase)
0 number: Number of examinees who exhibited ±, +, or ++ reactivity 1st (healthy adult examinees; 0.5 wt.%, line 1 of 3 (±)) | Number of examinees who exhibited ±, +, or ++ reactivity 1st (healthy adult examinees; 0.5 wt.%, line 2 of 3 (+)) | Number of examinees who exhibited ±, +, or ++ reactivity 1st (healthy adult examinees; 0.5 wt.%, line 3 of 3 (++)) | Number of examinees who exhibited ±, +, or ++ reactivity 2nd (healthy adult examinees; 0.5 wt.%, line 1 of 3 (±)) | Number of examinees who exhibited ±, +, or ++ reactivity 2nd (healthy adult examinees; 0.5 wt.%, line 2 of 3 (+)) | Number of examinees who exhibited ±, +, or ++ reactivity 2nd (healthy adult examinees; 0.5 wt.%, line 3 of 3 (++)) | Number of examinees who exhibited ±, +, or ++ reactivity 3rd (healthy adult examinees; 0.5 wt.%, line 1 of 3 (±)) | Number of examinees who exhibited ±, +, or ++ reactivity 3rd (healthy adult examinees; 0.5 wt.%, line 2 of 3 (+)) | Number of examinees who exhibited ±, +, or ++ reactivity 3rd (healthy adult examinees; 0.5 wt.%, line 3 of 3 (++)) | Number of examinees who exhibited ±, +, or ++ reactivity 4th (healthy adult examinees; 0.5 wt.%, line 1 of 3 (±)) | Number of examinees who exhibited ±, +, or ++ reactivity 4th (healthy adult examinees; 0.5 wt.%, line 2 of 3 (+)) | Number of examinees who exhibited ±, +, or ++ reactivity 4th (healthy adult examinees; 0.5 wt.%, line 3 of 3 (++)) | Number of examinees who exhibited ±, +, or ++ reactivity 5th (healthy adult examinees; 0.5 wt.%, line 1 of 3 (±)) | Number of examinees who exhibited ±, +, or ++ reactivity 5th (healthy adult examinees; 0.5 wt.%, line 2 of 3 (+)) | Number of examinees who exhibited ±, +, or ++ reactivity 5th (healthy adult examinees; 0.5 wt.%, line 3 of 3 (++)) | Number of examinees who exhibited ±, +, or ++ reactivity 6th (healthy adult examinees; 0.5 wt.%, line 1 of 3 (±)) | Number of examinees who exhibited ±, +, or ++ reactivity 6th (healthy adult examinees; 0.5 wt.%, line 2 of 3 (+)) | Number of examinees who exhibited ±, +, or ++ reactivity 6th (healthy adult examinees; 0.5 wt.%, line 3 of 3 (++)) | Number of examinees who exhibited ±, +, or ++ reactivity 7th (healthy adult examinees; 0.5 wt.%, line 1 of 3 (±)) | Number of examinees who exhibited ±, +, or ++ reactivity 7th (healthy adult examinees; 0.5 wt.%, line 2 of 3 (+)) | Number of examinees who exhibited ±, +, or ++ reactivity 7th (healthy adult examinees; 0.5 wt.%, line 3 of 3 (++)) | Number of examinees who exhibited ±, +, or ++ reactivity 8th (healthy adult examinees; 0.5 wt.%, line 1 of 3 (±)) | Number of examinees who exhibited ±, +, or ++ reactivity 8th (healthy adult examinees; 0.5 wt.%, line 2 of 3 (+)) | Number of examinees who exhibited ±, +, or ++ reactivity 8th (healthy adult examinees; 0.5 wt.%, line 3 of 3 (++)) | Number of examinees who exhibited ±, +, or ++ reactivity 9th (healthy adult examinees; 0.5 wt.%, line 1 of 3 (±)) | Number of examinees who exhibited ±, +, or ++ reactivity 9th (healthy adult examinees; 0.5 wt.%, line 2 of 3 (+)) | Number of examinees who exhibited ±, +, or ++ reactivity 9th (healthy adult examinees; 0.5 wt.%, line 3 of 3 (++)) | Number of examinees who exhibited ±, +, or ++ reactivity 1st (healthy adult examinees; 1 wt.%, line 1 of 3 (±)) | Number of examinees who exhibited ±, +, or ++ reactivity 1st (healthy adult examinees; 1 wt.%, line 2 of 3 (+)) | Number of examinees who exhibited ±, +, or ++ reactivity 1st (healthy adult examinees; 1 wt.%, line 3 of 3 (++)) | Number of examinees who exhibited ±, +, or ++ reactivity 2nd (healthy adult examinees; 1 wt.%, line 1 of 3 (±)) | Number of examinees who exhibited ±, +, or ++ reactivity 2nd (healthy adult examinees; 1 wt.%, line 2 of 3 (+)) | Number of examinees who exhibited ±, +, or ++ reactivity 2nd (healthy adult examinees; 1 wt.%, line 3 of 3 (++)) | Number of examinees who exhibited ±, +, or ++ reactivity 3rd (healthy adult examinees; 1 wt.%, line 1 of 3 (±)) | Number of examinees who exhibited ±, +, or ++ reactivity 3rd (healthy adult examinees; 1 wt.%, line 2 of 3 (+)) | Number of examinees who exhibited ±, +, or ++ reactivity 3rd (healthy adult examinees; 1 wt.%, line 3 of 3 (++)) | Number of examinees who exhibited ±, +, or ++ reactivity 4th (healthy adult examinees; 1 wt.%, line 1 of 3 (±)) | Number of examinees who exhibited ±, +, or ++ reactivity 4th (healthy adult examinees; 1 wt.%, line 2 of 3 (+)) | Number of examinees who exhibited ±, +, or ++ reactivity 4th (healthy adult examinees; 1 wt.%, line 3 of 3 (++))
0: average reactivity (healthy adult examinees; 0.5 wt.% in test composition) | average reactivity (healthy adult examinees; 1 wt.% in test composition)
